Reference: patent publication US20250375436A1, “SERDEXMETHYLPHENIDATE FOR TREATMENT OF IDIOPATHIC HYPERSOMNIA” (ZEVRA THERAPEUTICS, INC., priority 2024, published 2025)

Columns and labels:
[1] = system: Patients with IH; details: cited from earlier work
[2] = Plasma PK of d-MPH after single oral dose administrations of 240, 360 and 480 mg SDX Cl

Row | SMILES | TEAE anxiety ([1]; in vivo) [%] | TEAE dizziness ([1]; in vivo) [%] | TEAE headache ([1]; in vivo) [%] | TEAE nausea ([1]; in vivo) | TEAE vomiting ([1]; in vivo) [%] | Patients reporting worsening symptoms (PGI-C scale) ([1]; oxybate-treated patients) [%] | CL/F ([2]; single oral dose 240 mg SDX Cl, N = 14) [L/h] | CL/F ([2]; single oral dose 360 mg SDX Cl, N = 10) [L/h] | CL/F ([2]; single oral dose 480 mg SDX Cl, N = 7) [L/h]
1 | O=C(O)CCCO [oxybate] | 11 | 12 | 18 | 22 % of subjects | 11 | 21 | – | – | –
2 | COC(=O)[C@H](c1ccccc1)[C@H]1CCCCN1C(=O)OC[n+]1cccc(C(=O)N[C@@H](CO)C(=O)O)c1.[Cl-] [SDX Cl, 3-[[[(1S)-1-carboxy-2-hydroxyethyl]amino]carbonyl]-1-[[[[(2R)-2-[(1R)-2-methoxy-2-oxo-1-phenylethyl]-1-piperidinyl]carbonyl]oxy]methyl]pyridinium chloride] | – | – | – | – | – | – | 384 | 387 | 297
